Measurements taken from PubChem BioAssay (NCI).
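These data come from cells grown in 96-well plates and exposed to compound for 48 hours at five concentrations. TGI is the concentration that stops growth completely.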

Experiments:
Assay in all cases: NCI-60 cell line screen, 48 h
PC-3 prostate = test system: PC-3 prostate
U251 CNS = test system: U251 CNS
SK-MEL-28 melanoma = test system: SK-MEL-28 melanoma
T-47D breast = test system: T-47D breast
786-0 renal = test system: 786-0 renal
MDA-N = test system: MDA-N
A549 NSCLC = test system: A549 NSCLC
RXF 393 renal = test system: RXF 393 renal
KM12 colon = test system: KM12 colon
UACC-257 melanoma = test system: UACC-257 melanoma
HL-60(TB) leukemia = test system: HL-60(TB) leukemia
A498 renal = test system: A498 renal
NCI-H522 lung = test system: NCI-H522 lung
SW-620 colon = test system: SW-620 colon
HCT-15 colon = test system: HCT-15 colon
EKVX NSCLC = test system: EKVX NSCLC
MDA-MB-435 = test system: MDA-MB-435
MOLT-4 leukemia = test system: MOLT-4 leukemia
IGROV1 ovarian = test system: IGROV1 ovarian
SF-268 CNS = test system: SF-268 CNS
K-562 leukemia = test system: K-562 leukemia
HS 578T breast = test system: HS 578T breast
RPMI-8226 leukemia = test system: RPMI-8226 leukemia
COLO 205 colon = test system: COLO 205 colon
HT29 colon = test system: HT29 colon
NCI-H226 lung = test system: NCI-H226 lung
TK-10 renal = test system: TK-10 renal
NCI-H460 lung = test system: NCI-H460 lung
MCF7 breast = test system: MCF7 breast
SK-MEL-2 melanoma = test system: SK-MEL-2 melanoma
ACHN renal = test system: ACHN renal
MDA-MB-231 breast = test system: MDA-MB-231 breast
SK-OV-3 ovarian = test system: SK-OV-3 ovarian
SNB-75 CNS = test system: SNB-75 CNS
HCT-116 colon = test system: HCT-116 colon
CCRF-CEM leukemia = test system: CCRF-CEM leukemia
SNB-19 CNS = test system: SNB-19 CNS
SF-539 CNS = test system: SF-539 CNS
M14 melanoma = test system: M14 melanoma
BT-549 breast = test system: BT-549 breast
SK-MEL-5 melanoma = test system: SK-MEL-5 melanoma
CAKI-1 renal = test system: CAKI-1 renal
OVCAR-4 ovarian = test system: OVCAR-4 ovarian
OVCAR-3 ovarian = test system: OVCAR-3 ovarian
NCI/ADR-RES ovarian = test system: NCI/ADR-RES ovarian
OVCAR-8 ovarian = test system: OVCAR-8 ovarian
DU-145 prostate = test system: DU-145 prostate
NCI-H23 lung = test system: NCI-H23 lung
SF-295 CNS = test system: SF-295 CNS
UACC-62 melanoma = test system: UACC-62 melanoma
HOP-62 NSCLC = test system: HOP-62 NSCLC
LOX IMVI melanoma = test system: LOX IMVI melanoma
SN12C renal = test system: SN12C renal
OVCAR-5 ovarian = test system: OVCAR-5 ovarian
MALME-3M melanoma = test system: MALME-3M melanoma
HOP-92 NSCLC = test system: HOP-92 NSCLC
UO-31 renal = test system: UO-31 renal
HCC-2998 colon = test system: HCC-2998 colon

CCOP(=O)(/C=C/n1ccc(N)nc1=O)OCC
TGI (PC-3 prostate): > 100 µM
TGI (U251 CNS): > 100 µM
TGI (SK-MEL-28 melanoma): > 100 µM
TGI (T-47D breast): > 100 µM
TGI (786-0 renal): > 100 µM
TGI (MDA-N): > 100 µM
TGI (A549 NSCLC): > 100 µM
TGI (RXF 393 renal): > 100 µM
TGI (KM12 colon): > 100 µM
TGI (UACC-257 melanoma): > 100 µM
TGI (HL-60(TB) leukemia): > 100 µM
TGI (A498 renal): > 100 µM
TGI (NCI-H522 lung): > 100 µM
TGI (SW-620 colon): > 100 µM
TGI (HCT-15 colon): > 100 µM
TGI (EKVX NSCLC): > 100 µM
TGI (MDA-MB-435): > 100 µM
TGI (MOLT-4 leukemia): > 100 µM
TGI (IGROV1 ovarian): > 100 µM
TGI (SF-268 CNS): > 100 µM
TGI (K-562 leukemia): > 100 µM
TGI (HS 578T breast): > 100 µM
TGI (RPMI-8226 leukemia): > 100 µM
TGI (COLO 205 colon): > 100 µM
TGI (HT29 colon): > 100 µM
TGI (NCI-H226 lung): > 100 µM
TGI (TK-10 renal): > 100 µM
TGI (NCI-H460 lung): > 100 µM
TGI (MCF7 breast): > 100 µM
TGI (SK-MEL-2 melanoma): > 100 µM
TGI (ACHN renal): > 100 µM
TGI (MDA-MB-231 breast): > 100 µM
TGI (SK-OV-3 ovarian): > 100 µM
TGI (SNB-75 CNS): > 100 µM
TGI (HCT-116 colon): > 100 µM
TGI (CCRF-CEM leukemia): > 100 µM
TGI (SNB-19 CNS): > 100 µM
TGI (SF-539 CNS): > 100 µM
TGI (M14 melanoma): > 100 µM
TGI (BT-549 breast): > 100 µM
TGI (SK-MEL-5 melanoma): > 100 µM
TGI (CAKI-1 renal): > 100 µM
TGI (OVCAR-4 ovarian): > 100 µM
TGI (OVCAR-3 ovarian): > 100 µM
TGI (NCI/ADR-RES ovarian): > 100 µM
TGI (OVCAR-8 ovarian): > 100 µM
TGI (DU-145 prostate): > 100 µM
TGI (NCI-H23 lung): > 100 µM
TGI (SF-295 CNS): > 100 µM
TGI (UACC-62 melanoma): > 100 µM
TGI (HOP-62 NSCLC): > 100 µM
TGI (LOX IMVI melanoma): > 100 µM
TGI (SN12C renal): > 100 µM
TGI (OVCAR-5 ovarian): > 100 µM

C#CCOC(=O)C(N)C(C)O (stereo unspecified)
TGI (PC-3 prostate): > 100 µM
TGI (MALME-3M melanoma): > 100 µM
TGI (U251 CNS): > 100 µM
TGI (SK-MEL-28 melanoma): > 100 µM
TGI (T-47D breast): > 100 µM
TGI (HOP-92 NSCLC): > 100 µM
TGI (786-0 renal): > 100 µM
TGI (MDA-N): > 100 µM
TGI (A549 NSCLC): > 100 µM
TGI (RXF 393 renal): > 100 µM
TGI (KM12 colon): > 100 µM
TGI (UACC-257 melanoma): > 100 µM
TGI (HL-60(TB) leukemia): > 100 µM
TGI (A498 renal): > 100 µM
TGI (NCI-H522 lung): > 100 µM
TGI (SW-620 colon): > 100 µM
TGI (EKVX NSCLC): > 100 µM
TGI (MDA-MB-435): > 100 µM
TGI (MOLT-4 leukemia): > 100 µM
TGI (IGROV1 ovarian): > 100 µM
TGI (SF-268 CNS): > 100 µM
TGI (K-562 leukemia): > 100 µM
TGI (HS 578T breast): > 100 µM
TGI (RPMI-8226 leukemia): > 100 µM
TGI (COLO 205 colon): > 100 µM
TGI (HT29 colon): > 100 µM
TGI (NCI-H226 lung): > 100 µM
TGI (TK-10 renal): > 100 µM
TGI (MCF7 breast): > 100 µM
TGI (SK-MEL-2 melanoma): > 100 µM
TGI (ACHN renal): > 100 µM
TGI (MDA-MB-231 breast): > 100 µM
TGI (SK-OV-3 ovarian): > 100 µM
TGI (SNB-75 CNS): > 100 µM
TGI (HCT-116 colon): > 100 µM
TGI (CCRF-CEM leukemia): > 100 µM
TGI (M14 melanoma): > 100 µM
TGI (BT-549 breast): > 100 µM
TGI (UO-31 renal): > 100 µM
TGI (SK-MEL-5 melanoma): > 100 µM
TGI (CAKI-1 renal): > 100 µM
TGI (OVCAR-3 ovarian): > 100 µM
TGI (NCI/ADR-RES ovarian): > 100 µM
TGI (OVCAR-8 ovarian): > 100 µM
TGI (DU-145 prostate): > 100 µM
TGI (NCI-H23 lung): > 100 µM
TGI (SF-295 CNS): > 100 µM
TGI (UACC-62 melanoma): > 100 µM
TGI (HOP-62 NSCLC): > 100 µM
TGI (LOX IMVI melanoma): > 100 µM
TGI (SN12C renal): > 100 µM
TGI (OVCAR-5 ovarian): > 100 µM

Cc1cc(O)c(/C=N/c2nc(-c3ccc([N+](=O)[O-])cc3)cs2)c(=O)o1
TGI (PC-3 prostate): > 100 µM
TGI (U251 CNS): > 100 µM
TGI (T-47D breast): > 100 µM
TGI (HOP-92 NSCLC): > 100 µM
TGI (786-0 renal): > 100 µM
TGI (MDA-N): > 100 µM
TGI (A549 NSCLC): > 100 µM
TGI (RXF 393 renal): > 100 µM
TGI (KM12 colon): > 100 µM
TGI (UACC-257 melanoma): > 100 µM
TGI (HL-60(TB) leukemia): 75 µM
TGI (A498 renal): > 100 µM
TGI (NCI-H522 lung): > 100 µM
TGI (SW-620 colon): > 100 µM
TGI (HCT-15 colon): > 100 µM
TGI (EKVX NSCLC): > 100 µM
TGI (MDA-MB-435): > 100 µM
TGI (MOLT-4 leukemia): > 100 µM
TGI (IGROV1 ovarian): > 100 µM
TGI (SF-268 CNS): > 100 µM
TGI (K-562 leukemia): > 100 µM
TGI (HS 578T breast): > 100 µM
TGI (RPMI-8226 leukemia): > 100 µM
TGI (COLO 205 colon): > 100 µM
TGI (HT29 colon): > 100 µM
TGI (NCI-H226 lung): > 100 µM
TGI (TK-10 renal): > 100 µM
TGI (NCI-H460 lung): > 100 µM
TGI (MCF7 breast): > 100 µM
TGI (SK-MEL-2 melanoma): > 100 µM
TGI (ACHN renal): > 100 µM
TGI (MDA-MB-231 breast): > 100 µM
TGI (SK-OV-3 ovarian): > 100 µM
TGI (SNB-75 CNS): > 100 µM
TGI (HCT-116 colon): > 100 µM
TGI (CCRF-CEM leukemia): > 100 µM
TGI (SNB-19 CNS): > 100 µM
TGI (SF-539 CNS): > 100 µM
TGI (M14 melanoma): > 100 µM
TGI (BT-549 breast): > 100 µM
TGI (UO-31 renal): > 100 µM
TGI (HCC-2998 colon): > 100 µM
TGI (SK-MEL-5 melanoma): > 100 µM
TGI (CAKI-1 renal): > 100 µM
TGI (OVCAR-4 ovarian): > 100 µM
TGI (NCI/ADR-RES ovarian): > 100 µM
TGI (OVCAR-8 ovarian): > 100 µM
TGI (DU-145 prostate): > 100 µM
TGI (NCI-H23 lung): > 100 µM
TGI (SF-295 CNS): > 100 µM
TGI (UACC-62 melanoma): > 100 µM
TGI (HOP-62 NSCLC): > 100 µM
TGI (LOX IMVI melanoma): > 100 µM
TGI (SN12C renal): > 100 µM
TGI (OVCAR-5 ovarian): > 100 µM
